This note sets out measurements from US20240325420A1, “COMPOSITION INCLUDING PAEONIFLORIN FOR PREVENTION OR TREATMENT OF CACHEXIA AND MUSCLE LOSS” (CHUNG ANG UNIVERSITY INDUSTRY ACADEMIC COOPERATION …, priority 2021, published 2024).

Common to all, as to assay type: in vivo
Test [1] deals with C57BL/6 mice with cisplatin-induced cachexia. The experiment in a line: Body weight and muscle mass in cisplatin-treated C57BL/6 mice. As to the method: (§1) The animal experiments were performed in accordance with internationally accepted principles for laboratory animal use and care, and the corresponding study protocol was reviewed and approved by the Institutional Animal Care and Use Committee (IACUC) at Chung-Ang University (approval #2021-00022). Four-week-old female C57BL/6 mice and Balb/c mice were purchased from Raonbio Inc. (Yongin, Korea) and were provided with standard laboratory diet and water ad libitum in the animal facility of Chung-Ang University. After a week of acclimation, the mice were intraperitoneally injected three times with 3 mg/kg/day cisplatin, suspended in 200 μL saline, every other day. Control group mice (sham-treated mice) were injected with the same volume of saline under the same regimen. The cisplatin-treated groups were orally administered paeoniflroin (Pae) or megestrol acetate (MA), suspended in 200 μL distilled water, every day until euthanasia.
Specifically, the cisplatin-treated groups were orally administered paeoniflorin (prepared in Example 1) at a dose of 5 (Pae 5 group), 10 (Pae 10 group), or 20 (Pae 20 group) mg/kg once daily for 9 days. The comparative drug-treated group was orally administered megestrol acetate (MA), which is currently most commonly prescribed for cancer cachexia patients in clinical practice, at a dose of 160 mg/kg (=800 mg [daily human dose]/60 kg [average human body weight]×12 [dose equivalent factor based on human:mouse body surface area ratio], once daily for 9 days.
(§2) In addition, cisplatin-treated mice orally administered the same volume of distilled water were designated as the vehicle group. After completion of drug treatment, the mice of each group were euthanized with 10 mg/kg alfaxalone (Jurox, Rutherford, Australia). Blood was collected in test tubes containing EDTA, and centrifuged, and plasma was separated therefrom. Gastrocnemius and quadriceps skeletal muscles were dissected and weighed. The skeletal muscles were rapidly frozen in liquid nitrogen to be used for RT-qPCR, Western blotting, and ELISA.

Test [2] has the same test system. As to the kind of experiment: Skeletal muscle function test in cisplatin-treated C57BL/6 mice. The conditions noted are these: oral paeoniflorin 10 or 20 mg/kg. As to the method: as §1
Specifically, the cisplatin-treated groups were orally administered paeoniflorin (prepared in Example 1) at a dose of 5 (Pae 5 group), 10 (Pae 10 group), or 20 (Pae 20 group) mg/kg once daily for 9 days. […]
(§3) A skeletal muscle function test was conducted one day before euthanasia. Muscle strength of each mouse was measured by the grip strength of front paws, and endurance of each mouse was measured by treadmill running time until exhaustion. Motor coordination was measured by retention time on a rotating cylinder with a diameter of 3 cm (Castro and Kuang, 2017). The grip strength of each mouse was measured using a grip strength meter (Bio-GS3, Bioseb, Vitrolles, France). The treadmill running time of each mouse was measured on a treadmill (Exer-3/6, Columbus Instruments, […], USA). The ability of each mouse to stay on a rotating cylinder was measured using a rotarod apparatus (Panlab, Barcelona, Spain).

Test [3] has as its system Balb/c mice with cisplatin-induced cachexia. As to the kind of experiment: Skeletal muscle function test in cisplatin-treated Balb/c mice. To be noted: oral paeoniflorin. As to the method: as §1, with “Control group mice (sham-treated mice) were injected with the same volume of saline under the same regimen. The cisplatin-treated groups were orally administered paeoniflroin (Pae) or megestrol acetate (MA), suspended in 200 μL distilled water, every day until euthanasia.” left out
as §3

The test system of test [4] is TNF-α, IL-6, IL-1β, IL-1α, CCL2 and CCL5. The experiment in a line: mRNA levels of pro-inflammatory cytokines and chemokines in skeletal muscle by real-time PCR, C57BL/6 mice. To be noted: cisplatin-treated, Pae 10 and Pae 20 vs vehicle. The method, then:
as §2
Total RNA was isolated from skeletal muscle using Qiazol (Qiagen, Germany), and then the mRNA levels of pro-inflammatory cytokines and muscle-specific ubiquitin E3 ligases (MuRF1 and MAFbx) were measured by real-time PCR.
The mRNA levels of pro-inflammatory cytokines such as TNF-α, IL-6, IL-1β, and IL-1α, as well as chemokines such as CCL2 and CCL5, in the skeletal muscle, were measured by real-time PCR.

Test [5] has as its system NF-κB signaling (p-IKK, p-IκB, IκB, NF-κB p65). The experiment in a line: NF-κB signaling in skeletal muscle by Western blotting. The conditions noted are these: gastrocnemius muscle, C57BL/6 mice, cisplatin-treated, Pae 10 and Pae 20. The method, then: Proteins were extracted from skeletal muscle using NucleoSpin kits (Macherey-Nagel, Duren, Germany) and quantified using the BCA Protein Assay Kit (Pierce, Rockford, IL, USA). Anti-β-actin antibody was used to quantify protein loading. For myosin protein (MyHC, myosin heavy chain), myogenic factor (MyoD), and NF-κB signaling system (p-IKK, IKK, p-IκB, and IκB), protein levels in the gastrocnemius muscle were measured by Western blotting. Band intensities were quantified using ImageJ software (NIH, Bethesda, MD, USA). Nuclear and cytoplasmic lysates were prepared from the skeletal muscle using a nuclear extraction kit (Active Motif, Carlsbad, CA, USA). The protein concentration of both lysates was measured using the BCA Protein Assay Kit (Pierce). Anti-NF-κB p65 was used as the primary antibody, and 10 μg of protein per lysate was analyzed by Western blotting. TBP (TATA box-binding protein) and β-actin were as controls for the nuclear and cytosolic lysates, respectively. The target DNA binding activity of NF-κB was measured using the TransAM NF-κB ELISA kit (Active Motif, USA). NF-κB signaling was analyzed by Western blotting of the total extract and the cytosolic and nuclear fraction from the skeletal muscle of C57BL/6 mice.

The next test has as its system NF-κB. The experiment in a line: Target DNA binding activity of NF-κB in skeletal muscle (TransAM NF-κB ELISA). To be noted: gastrocnemius muscle; C57BL/6 mice; cisplatin-treated; Pae 10 and Pae 20; FIG. 12C. The method, then: Nuclear and cytoplasmic lysates were prepared from the skeletal muscle using a nuclear extraction kit (Active Motif, Carlsbad, CA, USA). The protein concentration of both lysates was measured using the BCA Protein Assay Kit (Pierce). Anti-NF-κB p65 was used as the primary antibody, and 10 μg of protein per lysate was analyzed by Western blotting. TBP (TATA box-binding protein) and β-actin were as controls for the nuclear and cytosolic lysates, respectively. The target DNA binding activity of NF-κB was measured using the TransAM NF-κB ELISA kit (Active Motif, USA).

Another test relates to TNF-α. The experiment in a line: Plasma TNF-α by ELISA in mice with cisplatin-induced cachexia. The conditions noted are these: C57B/6 mice; cisplatin plus paeoniflorin-treated group vs cisplatin-treated group; FIG. 13A. As to the method:
as §2
The levels of TNF-α and interleukin (IL)-6 were measured using respective mouse ELISA kits (Invitrogen, Waltham, MA, USA). IL-1β and GDF-15 levels were measured using respective Quantikine ELISA kits (R&D Systems, Minneapolis, MN, USA).
The protein concentration of the pro-inflammatory cytokine TNF-α in the plasma of mice was analyzed by ELISA.
(An ELISA detects its analyte on a solid surface through an enzyme-linked reagent.)

As to `C[C@@]12C[C@@]3(O)O[C@@H](O1)[C@]1(COC(=O)c4ccccc4)[C@H]3C[C@@]12O[C@@H]1O[C@H](CO)[C@@H](O)[C@H](O)[C@H]1O` [paeoniflorin], in test [1] (cisplatin 3 mg/kg/day i.p. three times, paeoniflorin 10 or 20 mg/kg orally daily for 9 days, vs vehicle, FIG. 1A), the “cisplatin-induced weight loss (body weight)” value was “attenuated”. Besides, in test [1] (cisplatin-treated, paeoniflorin 10 or 20 mg/kg orally daily, FIG. 1B), the “weight of gastrocnemius muscle (skeletal muscle mass)” value is recorded as “restored”. In addition, the “weight of quadriceps muscle (skeletal muscle mass)” value in test [1] (cisplatin-treated, paeoniflorin 10 or 20 mg/kg orally daily, FIG. 1C) is “restored”. In addition, the “grip strength (muscle strength)” value in test [2] (FIG. 3A) is “significantly restored”. Moreover, the “treadmill running time (endurance)” value in test [2] (FIG. 3B) is recorded as “significantly restored”. Moreover, the “rotarod retention time (motor coordination)” value in test [2] (FIG. 3C) is reported as “significantly restored”. In test [3] (FIG. 4A), the muscle strength result is listed as “similarly restored”. For the same compound, the endurance entry in test [3] (FIG. 4B) is “similarly restored”. For the same compound, the “TNF-α mRNA expression level in the muscle” value in test [4] (FIG. 8A) was “decreased”. Besides, in test [4] (FIG. 8B), the “IL-6 mRNA expression level in the muscle” value is reported as “decreased”. Further, in test [4] (FIG. 8C), the “IL-1β mRNA expression level in the muscle” value is “decreased”. Besides, the “IL-1α mRNA expression level in the muscle” value in test [4] (FIG. 8D) is “decreased”. Also, in test [4] (FIG. 8E), the “CCL2 mRNA expression level in the muscle” value is “decreased”. Besides, the “CCL5 mRNA expression level in the muscle” value in test [4] (FIG. 8F) is reported as “decreased”. In addition, the “level of p-IKK (phospho-IKK)” value in test [5] (FIG. 10A) was “reduced again”. Also, the “level of p-IκB (phospho-IκB)” value in test [5] (FIG. 10B) is “reduced again”. In test [5] (FIG. 11), the “level of IκB” value was “increased”. Moreover, the “cytosolic level of NF-κB” value in test [5] (FIG. 12A) is on record as “increased”. In test [5] (FIG. 12B), the “nuclear level of NF-κB” value is given as “decreased”. Further, the “target DNA binding activity of NF-κB” value in the test on NF-κB is “decreased”. The “plasma concentration of TNF-α” value in the test with TNF-α is listed as “significantly decreased”.
